Measured values published in patent US20090069320A1, “Substituted 4-Amino-Quinazoline Compounds with Metabotropic Glutamate Receptor Regulating Activity and Uses Thereof” (Gruenenthal GmbH, priority 2006, published 2009).
pIC50, pKi: −log10 of the molar value. Counter-ions that a name gives are not always drawn.

How the values were obtained:
[1] = Formalin test on rats; assay type: in vivo, rat
Procedure: IIa. Formalin Test on Rats:
The formalin test (Dubuisson, D. and Dennis, S. G., 1977, Pain, 4, 161-174) represents a model for acute as well as chronic pain. By a single formalin injection into the dorsal side of a rear paw a biphase nociceptive reaction is inducted in free-moving test animals that is detected by observation of three clearly distinguishable behavior patterns. The reaction is two-phase: phase I=immediate reaction (duration up to 10 min.; paw shaking, licking), phase 2=late reaction (after a resting phase; likewise paw shaking, licking; duration up to 60 min.). The first phase reflects a direct stimulation of the peripheral nocisensors with high spinal nociceptive input or glutamate release (acute pain phase); the second phase reflects a spinal and peripheral hypersensitisation (chronic pain phase). The chronic pain component (phase 2) was evaluated in the studies presented here.
Formalin is applied subcutaneously in a volume of 50 μl and a concentration of 5% into the dorsal side of the right rear paw of each animal. […] The specific changes in behavior such as lifting and shaking of the paw, shifting weight of the animal as well as biting and licking reactions are observed and recorded in the observation period of 21 to 27 min. after the formalin injection. […]

[2] = target: T1, mGluR5 receptor (human) (Homo sapiens, UniProt P41594); test: Functional Ca2+ influx assay in CHO-hmGluR5 cells (DHPG 10 μM, FLIPR); assay type: cell-based
T1 construct: host or cells: CHO
T1 sequence (P41594 21-1212): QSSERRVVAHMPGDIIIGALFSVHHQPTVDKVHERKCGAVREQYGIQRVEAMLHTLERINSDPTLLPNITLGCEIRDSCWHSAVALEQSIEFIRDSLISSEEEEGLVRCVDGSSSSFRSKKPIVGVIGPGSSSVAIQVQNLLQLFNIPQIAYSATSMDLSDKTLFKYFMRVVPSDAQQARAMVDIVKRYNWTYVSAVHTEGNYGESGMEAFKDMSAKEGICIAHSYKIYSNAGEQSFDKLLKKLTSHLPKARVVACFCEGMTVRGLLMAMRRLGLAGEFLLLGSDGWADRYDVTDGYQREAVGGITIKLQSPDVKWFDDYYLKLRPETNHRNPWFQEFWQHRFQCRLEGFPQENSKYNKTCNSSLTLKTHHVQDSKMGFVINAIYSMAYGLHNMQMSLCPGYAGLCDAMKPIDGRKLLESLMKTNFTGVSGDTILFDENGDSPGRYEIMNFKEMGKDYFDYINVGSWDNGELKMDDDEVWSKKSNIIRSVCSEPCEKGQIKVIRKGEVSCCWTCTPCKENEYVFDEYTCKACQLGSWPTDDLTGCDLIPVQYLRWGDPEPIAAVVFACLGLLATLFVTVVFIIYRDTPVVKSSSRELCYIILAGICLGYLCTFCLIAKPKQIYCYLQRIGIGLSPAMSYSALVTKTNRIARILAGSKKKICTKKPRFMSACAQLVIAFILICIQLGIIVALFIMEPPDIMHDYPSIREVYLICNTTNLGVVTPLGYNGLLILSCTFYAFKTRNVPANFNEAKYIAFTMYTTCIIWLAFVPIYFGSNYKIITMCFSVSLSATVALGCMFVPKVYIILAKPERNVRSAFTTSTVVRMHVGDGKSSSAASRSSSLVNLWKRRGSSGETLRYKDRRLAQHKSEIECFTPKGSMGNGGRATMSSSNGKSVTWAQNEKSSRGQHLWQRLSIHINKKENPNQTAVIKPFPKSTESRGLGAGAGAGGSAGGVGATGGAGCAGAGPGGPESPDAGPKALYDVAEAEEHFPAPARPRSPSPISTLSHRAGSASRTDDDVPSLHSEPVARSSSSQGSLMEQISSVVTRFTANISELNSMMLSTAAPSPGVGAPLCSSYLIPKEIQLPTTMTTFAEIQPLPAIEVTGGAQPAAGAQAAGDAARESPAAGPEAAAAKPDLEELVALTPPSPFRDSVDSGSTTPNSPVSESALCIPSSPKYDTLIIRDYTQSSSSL
Procedure: V. Functional Ca^2+ Influx Assay
20,000 CHO-hmGluR5 cells/well (Euroscreen, Gosselies, Belgium) are pipetted into 96-well plates (BD Biosciences, Heidelberg, Germany, Ref. 356640, clear bottom, 96-well, poly-D-lysine) and incubated overnight in HBSS buffer (Gibco 14025-050) with the following additions: 10% FCS (GIBCO, 10270-106) and doxycycline (BD Biosciences Clontech 631311 600 ng/ml).
For the functional study the cells were charged with 2 μM of Fluo-4 and 0.01% by vol. pluronic F127 (Molecular Probes Europe BV, Leiden, The Netherlands) in HBSS buffer (Hank's buffered saline solution, Gibco Invitrogen GmbH, Karlsruhe, Germany) with probenicide (Sigma P8761, […]) for 30 min. at 37° C.
The cells are then washed 3 times with washing buffer (HBSS buffer, Gibco No. 14025-050), with probenicide (Sigma P8761, 0.69 mg/ml) and then taken up with the same buffer ad 100 μl. After 15 min. the plates for determining the Ca^2+ measurements in the presence of DHPG ((S)-3,5-dihydroxyphenylglycine, Tocris Biotrend Chemikalien GmbH, Cologne, Germany, final DHPG concentration: 10 μM) and also in the presence or absence of test substances are transferred into a fluorometric imaging plate reader (FLIPR, Molecular Devices, Sunnyvale, Calif.).
The Ca^2+-dependent fluorescence is measured before and after the addition of test substances. The quantification occurs through the measurement of the highest fluorescence intensity over time. After the fluorescence base line has been recorded for 10 sec. 50 μl of test substance solution (different test substance concentrations in HBSS buffer with 1% DMSO and 0.02% Tween 20, Sigma) are added and the fluorescence signal is measured for 6 min. 50 μl of DHPG solution ((S)-3,5-dihydroxyphenylglycine, Tocris Biotrend Chemikalien GmbH, Cologne, Germany, final DHPG concentration: 10 μM) are then added and the influx of Ca^2+ is measured simultaneously for 60 sec. The final DMSO concentration amounts to 0.25% and the final Tween 20 content amounts to 0.005%. The data are analysed with Microsoft Excel and GraphPad Prism. The dose effect curves are calculated with non-linear regression and IC50 values determined. Each data point is determined 3 times and IC50 values are averaged from a minimum of 2 independent measurements. Ki values are calculated according to the following formula:
Ki=IC50/(1+(AGconc./EC50)).
AGconc.=10 μM; EC50 corresponds to the DHPG concentration necessary for the half-maximum influx of Ca^2+.

[3] = target: T2, mGluR5 receptor (Sus scrofa, UniProt I3LUI7); test: [3H]-MPEP mGluR5 receptor binding assay (pig brain homogenate); conditions: 5 nM [3H]-MPEP; for pIC50: read-out: IC50 mGluR5 Receptor (pig) [^3H]-MPEP Bond
T2 construct: 450 μg of protein from brain homogenate with 5 nM ^3[H]-MPEP; from tissue; host or cells: pig brain halves without medulla, cerebellum and pons
T2 sequence (I3LUI7 19-1212): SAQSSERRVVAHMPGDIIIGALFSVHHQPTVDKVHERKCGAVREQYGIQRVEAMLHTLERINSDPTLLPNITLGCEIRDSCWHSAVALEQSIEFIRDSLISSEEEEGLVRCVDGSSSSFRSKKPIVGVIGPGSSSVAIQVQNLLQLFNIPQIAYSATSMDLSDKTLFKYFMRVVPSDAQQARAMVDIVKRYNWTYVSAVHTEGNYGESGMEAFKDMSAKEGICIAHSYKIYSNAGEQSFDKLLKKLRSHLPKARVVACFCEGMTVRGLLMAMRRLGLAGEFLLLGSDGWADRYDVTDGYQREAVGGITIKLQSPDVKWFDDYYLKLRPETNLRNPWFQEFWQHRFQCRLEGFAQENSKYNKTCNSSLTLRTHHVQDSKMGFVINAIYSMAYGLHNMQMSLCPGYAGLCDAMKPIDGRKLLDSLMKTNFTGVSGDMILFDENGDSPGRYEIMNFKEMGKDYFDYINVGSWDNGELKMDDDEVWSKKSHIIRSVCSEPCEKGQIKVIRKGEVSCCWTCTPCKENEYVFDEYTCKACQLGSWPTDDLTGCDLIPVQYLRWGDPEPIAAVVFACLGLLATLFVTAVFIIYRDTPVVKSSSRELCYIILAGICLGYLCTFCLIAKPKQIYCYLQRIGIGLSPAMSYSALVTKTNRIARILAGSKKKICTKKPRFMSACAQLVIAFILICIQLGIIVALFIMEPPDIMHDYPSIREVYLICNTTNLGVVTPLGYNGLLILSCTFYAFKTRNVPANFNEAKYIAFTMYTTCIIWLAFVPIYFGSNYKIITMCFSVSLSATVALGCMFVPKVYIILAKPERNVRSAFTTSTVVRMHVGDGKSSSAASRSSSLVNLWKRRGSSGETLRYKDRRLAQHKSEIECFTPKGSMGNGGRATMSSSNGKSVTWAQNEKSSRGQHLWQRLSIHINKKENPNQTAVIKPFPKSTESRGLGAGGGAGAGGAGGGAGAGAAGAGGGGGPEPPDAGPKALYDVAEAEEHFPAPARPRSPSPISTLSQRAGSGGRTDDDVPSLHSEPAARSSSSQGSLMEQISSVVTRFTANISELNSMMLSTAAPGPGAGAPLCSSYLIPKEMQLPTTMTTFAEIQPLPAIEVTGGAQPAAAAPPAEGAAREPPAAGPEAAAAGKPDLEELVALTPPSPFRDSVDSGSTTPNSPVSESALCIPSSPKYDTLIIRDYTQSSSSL
Outline: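 Radioligand displacement of 5 nM [3H]-MPEP from pig brain homogenate (450 μg protein; medulla, cerebellum and pons removed) in 20 mM Hepes pH 8.0. Compounds were tested at 10 μM, incubated 60 min at room temperature, then filtered and counted by scintillation. Non-specific binding was defined with 10 μM MPEP.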

| SMILES | pKi [2] | pIC50 [3] | inhibition at 10 µM ([3]; 10 μM compound, read-out: % Inhibition of mGluR5 Receptor (pig) [^3H]-MPEP Bond at 10 μM) | Formalin Test ([1]; 10 mg/kg i.v.) | Formalin Test ([1]; 2.15 mg/kg i.v.) |
| --- | --- | --- | --- | --- | --- |
| CC(C)(C)Nc1ncnc2ccc(-c3ccc(F)c(CN(C(=O)CC#N)C4CC4)c3)cc12 [Example 201, N-[5-(4-tert-butylamino-quinazolin-6-yl)-2-fluoro-benzyl]-2-cyano-N-cyclopropyl-acetamide] | 8.57 | 7.52 |  |  | 46% effect at |
| O=C1CCC(=O)N1Cc1cccc(-c2ccc3ncnc(NC4CC4)c3c2)c1 [Example 258, 1-[3-(4-cyclopropylamino-quinazolin-6-yl)-benzyl]-pyrrolidine-2,5-dione] | 8.41 | 7.30 |  |  |  |
| CC(C)(C)Nc1ncnc2ccc(-c3cccc(CN4C(=O)CCC4=O)c3)cc12 [Example 196, 1-[3-(4-tert-butylamino-quinazolin-6-yl)-benzyl]-pyrrolidine-2,5-dione hydrochloride] | 8.33 | 7.05 |  |  |  |
| O=C(c1ccccc1)N(Cc1cc(-c2ccc3ncnc(NC4CC4)c3c2)ccc1F)C1CC1 [Example 269, N-cyclopropyl-N-(5-(4-(cyclopropylamino)quinazolin-6-yl)-2-fluorobenzyl)benzamide] | 8.10 | 6.55 |  |  |  |
| COc1ccc(CN(C2CC2)S(C)(=O)=O)cc1-c1ccc2ncnc(NC3CC3)c2c1 [Example 250, N-cyclopropyl-N-(3-(4-(cyclopropylamino)quinazolin-6-yl)-4-methoxybenzyl)methane sulfonamide] | 8.30 | 6.92 |  |  |  |
| CC1CC(=O)N(Cc2cccc(-c3ccc4ncnc(NC5CC5)c4c3)c2)C1=O (centres unmarked) [Example 245, 1-[3-(4-cyclopropylamino-quinazolin-6-yl)-benzyl]-3-methyl-pyrrolidine-2,5-dione] | 8.28 | 6.85 |  |  |  |

More lines, main results first:

| pKi [2] | pIC50 [3] | inhibition at 10 µM ([3]; 10 μM compound, read-out: % Inhibition of mGluR5 Receptor (pig) [^3H]-MPEP Bond at 10 μM) | SMILES | Formalin Test ([1]; 10 mg/kg i.v.) | Formalin Test ([1]; 2.15 mg/kg i.v.) |
| --- | --- | --- | --- | --- | --- |
| 9.10 | 7.52 |  | CC(=O)N(Cc1cc(-c2ccc3ncnc(NC4CC4)c3c2)ccc1F)C1CC1 [Example 260, N-cyclopropyl-N-[5-(4-cyclopropylamino-quinazolin-6-yl)-2-fluoro-benzyl]-acetamide] | 80% effect at |  |
| 8.23 | 6.96 |  | CC(=O)N(Cc1cc(-c2ccc3ncnc(NC4CC4)c3c2)cs1)C1CC1 [Example 262, N-cyclopropyl-N-[4-(4-cyclopropylamino-quinazolin-6-yl)-thiophen-2-ylmethyl]-acetamide] |  |  |
| 8.77 | 7.52 |  | O=C(N(Cc1cccc(-c2ccc3ncnc(NC4CC4)c3c2)c1)C1CC1)C(F)(F)F [Example 273, N-cyclopropyl-N-(3-(4-(cyclopropylamino)quinazolin-6-yl)benzyl)-2,2,2-trifluoroacetamide] |  |  |
| 7.92 | 6.55 |  | CS(=O)(=O)N(Cc1cccc(-c2ccc3ncnc(NC4CC4)c3c2)c1)C1CC1 [Example 270, N-cyclopropyl-N-(3-(4-(cyclopropylamino)quinazolin-6-yl)benzyl)methane sulfonamide] |  |  |
| 8.09 | 6.85 |  | CC(=O)N(Cc1cccc(-c2ccc3ncnc(NC4CC4)c3c2)c1)C1CC1 [Example 271, N-cyclopropyl-N-(3-(4-(cyclopropylamino)quinazolin-6-yl)benzyl)acetamide] |  |  |
| 8.48 |  | 55% | CC(=O)N(Cc1cccc(-c2ccc3ncnc(NC4CC4)c3c2)c1)C(C)(C)C [Example 202, N-tert-butyl-N-[3-(4-cyclopropylamino-quinazolin-6-yl)-benzyl]-acetamide] |  |  |
